Test results taken from ChEMBL document CHEMBL3576793, “Restoration of Chemosensitivity in P-Glycoprotein-Dependent Multidrug-Resistant Cells by Dihydro-β-agarofuran Sesquiterpenes from Celastrus vulcanicola” (J Nat Prod, 2015).

Key:
[1] = biological target: T1, ATP-dependent translocase ABCB1 (Homo sapiens, UniProt P08183); test: Inhibition of human MDR1 transfected in mouse NIH/3T3 MDR1-G185 cells assessed as daunomycin accumulation at 10 uM after 30 mins by flow cytometry (reference value: 13.2 +/- 1.1%); type: cell-based; parameters: scale not given: the % may be the effect or the level left; details: nih/3t3 mdr1-g185, 0.5 h
T1 sequence (P08183 whole entry): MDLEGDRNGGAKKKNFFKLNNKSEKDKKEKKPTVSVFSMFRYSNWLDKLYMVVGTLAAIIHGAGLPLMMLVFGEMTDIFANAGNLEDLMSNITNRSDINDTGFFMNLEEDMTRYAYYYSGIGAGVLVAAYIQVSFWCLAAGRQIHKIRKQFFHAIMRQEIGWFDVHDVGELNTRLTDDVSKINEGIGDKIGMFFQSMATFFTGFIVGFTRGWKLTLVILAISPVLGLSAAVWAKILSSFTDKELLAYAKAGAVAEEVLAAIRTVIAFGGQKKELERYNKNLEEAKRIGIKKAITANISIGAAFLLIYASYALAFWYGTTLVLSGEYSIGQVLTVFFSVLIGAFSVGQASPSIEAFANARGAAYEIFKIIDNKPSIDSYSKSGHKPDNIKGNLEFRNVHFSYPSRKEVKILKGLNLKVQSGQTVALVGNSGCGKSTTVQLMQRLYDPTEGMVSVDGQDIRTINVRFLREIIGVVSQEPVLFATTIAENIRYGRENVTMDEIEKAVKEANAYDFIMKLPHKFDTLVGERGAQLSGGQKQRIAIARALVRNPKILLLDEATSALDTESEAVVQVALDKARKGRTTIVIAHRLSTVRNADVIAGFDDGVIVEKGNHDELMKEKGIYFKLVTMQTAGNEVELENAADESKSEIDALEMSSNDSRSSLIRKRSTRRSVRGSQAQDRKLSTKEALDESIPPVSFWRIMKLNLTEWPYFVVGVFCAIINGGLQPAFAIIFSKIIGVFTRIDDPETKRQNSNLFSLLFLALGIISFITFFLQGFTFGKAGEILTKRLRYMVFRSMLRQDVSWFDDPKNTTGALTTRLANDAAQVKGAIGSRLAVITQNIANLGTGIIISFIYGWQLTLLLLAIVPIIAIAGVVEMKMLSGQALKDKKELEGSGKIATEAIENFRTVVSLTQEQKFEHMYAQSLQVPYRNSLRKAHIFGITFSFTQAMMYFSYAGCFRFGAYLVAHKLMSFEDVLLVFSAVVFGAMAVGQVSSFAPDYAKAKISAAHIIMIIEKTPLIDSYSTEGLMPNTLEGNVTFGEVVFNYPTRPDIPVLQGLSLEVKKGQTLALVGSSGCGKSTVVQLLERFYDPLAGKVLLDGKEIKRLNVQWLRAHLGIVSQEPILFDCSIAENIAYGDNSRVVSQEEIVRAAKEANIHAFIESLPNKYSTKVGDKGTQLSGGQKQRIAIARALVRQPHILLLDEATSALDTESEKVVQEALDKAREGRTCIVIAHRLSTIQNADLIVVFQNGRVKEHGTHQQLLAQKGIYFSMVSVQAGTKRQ

[2] = Cytotoxicity against mouse NIH/3T3 cells assessed as cell growth at 10 uM after 24 hrs by MTT assay; type: cell-based, NIH3T3; details: read-out: Activity
[3] = Cytotoxicity against human MDR1 transfected mouse NIH/3T3 MDR1-G185 cells assessed as cell growth at 10 uM after 24 hrs by MTT assay; type: ADME, cell-based, NIH3T3; details: mouse NIH/3T3 MDR1-G185 cells transfected with human MDR1, read-out: Activity
[4] = biological target: T1, ATP-dependent translocase ABCB1; test: Inhibition of human MDR1 transfected in mouse NIH/3T3 MDR1-G185 cells assessed as […] daunomycin accumulation after 30 mins by flow cytometry; type: cell-based

Structure (SMILES)	Activity [1] [%]	viability at 24 h, 10 µM [2] [%]	viability at 24 h, 10 µM [3] [%]	Ki [4] [nM]
CC(=O)O[C@H]1[C@@H]2[C@@H](OC(=O)c3ccccc3)[C@@]3(OC2(C)C)[C@@](C)([C@@H](O)[C@@H](OC(C)=O)C[C@]3(C)O)[C@H]1OC(=O)c1ccccc1	73.1	–	–	–
CC(=O)OC[C@]12[C@@H](OC(=O)c3ccccc3)[C@@H](OC(C)=O)[C@@H]3[C@@H](OC(=O)c4ccccc4)[C@]1(OC3(C)C)[C@@](C)(O)C[C@H](OC(C)=O)[C@@H]2OC(C)=O	79.7	64.4	71.4	780
CC(=O)OC[C@]12[C@@H](OC(=O)c3ccccc3)[C@@H](OC(C)=O)[C@@H]3[C@@H](OC(C)=O)[C@]1(OC3(C)C)[C@@](C)(O)C[C@H](OC(C)=O)[C@@H]2OC(C)=O	69.9	–	–	–
CC(=O)O[C@H]1[C@@H](OC(=O)c2ccccc2)C[C@@H](C)[C@]23OC(C)(C)[C@H](C[C@H](OC(=O)c4ccccc4)[C@]12C)[C@H]3OC(=O)c1cccnc1	80.1	75.4	70.2	290
COc1ccc(CCN(C)CCCC(C#N)(c2ccc(OC)c(OC)c2)C(C)C)cc1OC (configuration not stated)	60.3	–	80.8	–
CC(=O)O[C@@H]1[C@@H]2[C@@H](OC(=O)c3ccccc3)[C@@]3(OC2(C)C)[C@](C)([C@@H]1OC(=O)c1ccccc1)[C@@H](OC(C)=O)[C@@H](O)C[C@]3(C)O	73.2	–	–	–
CC(=O)OC[C@]12[C@@H](OC(=O)c3ccccc3)[C@@H](OC(C)=O)[C@@H]3C[C@]1(OC3(C)C)[C@H](C)C[C@H](OC(C)=O)[C@@H]2OC(C)=O	68.2	–	–	–
CC(=O)OC[C@]12[C@@H](OC(=O)c3ccccc3)[C@@H](OC(C)=O)[C@@H]3[C@@H](OC(C)=O)[C@]1(OC3(C)C)[C@@](C)(O)C[C@H](OC(=O)c1ccccc1)[C@@H]2OC(C)=O	73.8	–	–	–
CC(=O)OC[C@]12[C@@H](OC(=O)c3ccccc3)[C@@H](O)[C@@H]3[C@@H](OC(C)=O)[C@]1(OC3(C)C)[C@@](C)(O)C[C@H](OC(=O)c1ccccc1)[C@@H]2OC(C)=O	73.2	–	–	–
CC(=O)OC[C@@]12[C@@H](OC(C)=O)CC[C@](C)(O)[C@]13OC(C)(C)[C@H](C[C@@H]2OC(=O)c1ccccc1)[C@H]3OC(C)=O	72.4	–	–	–
CC(=O)O[C@H]1C[C@](C)(O)[C@]23OC(C)(C)[C@H]([C@H](OC(=O)/C=C/c4ccccc4)[C@H](OC(=O)c4ccccc4)[C@]2(C)[C@H]1OC(C)=O)[C@H]3O	85.1	69	78.4	420
CC(=O)O[C@H]1[C@@H](OC(=O)c2ccccc2)[C@]2(C)[C@@H](O)[C@@H](OC(C)=O)C[C@](C)(O)[C@@]23C[C@@H]1C(C)(C)O3	37	–	–	–
CC(=O)O[C@H]1CC[C@](C)(O)[C@]23OC(C)(C)[C@H]([C@H](OC(=O)/C=C\c4ccccc4)[C@H](OC(=O)c4ccccc4)[C@]12C)[C@H]3OC(C)=O	82.2	51.4	64.3	610
CC(=O)OC[C@]12[C@@H](OC(=O)c3ccccc3)C[C@@H]3[C@@H](OC(C)=O)[C@]1(OC3(C)C)[C@@](C)(O)C[C@H](OC(=O)c1ccccc1)[C@@H]2OC(C)=O	73.6	–	–	–
